One may read the melting point as the temperature of the solid-liquid transition.

The molecule `Nc1ccnc(CSCCO)n1` registered a melting point of 131 to 134 °C.
The molecule `CC(C)(C)OC(=O)N1CCC(O)(CS)CC1` displayed a melting point of 54 to 55 °C.
With `Cc1cc2cc(C(=O)OCc3ccccc3)n(CC(=O)OC(C)(C)C)c2cc1C`, the melting point fell in the range of 133 to 134 °C.
The figure for `Cc1c(O)cc(O)c(C)c1C(=O)OCc1ccc([N+](=O)[O-])cc1` is 164 to 166 °C; for `CON=C(C)c1ccc(-c2ccc(C(=O)n3ccc4cc(OC)c(OCCN(C)C)cc43)cc2)c(C)c1` it is 120 to 121 °C.
As for `O=C1N(CCO)c2ccccc2C(c2ccccc2)N1C1CCN(Cc2cccc(CO)c2)CC1` (stereo unspecified), the melting point was 185 to 187 °C.
Consider `CCN(CC)c1ccc(C2OC(C)(C)N=C2c2ccccc2)cc1` (stereo unspecified), for which the melting point is 104 to 105 °C.
`C[C@H](NS(=O)(=O)C12CC3CC(CC(C3)C1)C2)C(=O)N1CCC[C@H]1C(=O)Nc1ccccc1` showed a melting point of 138 to 141 °C.
For `CCOC(=O)C(=O)Nc1cccc(C)n1`, the melting point was 61 to 63 °C.
For `Nc1cc2c(cn1)CC(c1ccc(Cl)cc1Cl)c1ccccc1-2` (stereo unspecified), the melting point is 189 to 193 °C.
On to `CC(C)c1cc(CO)n(Cc2ccc(Cl)cc2Cl)n1`, for which the melting point is 89 to 90 °C.
Take `CCCCC[C@@H](CNC(=O)Nc1cccc2c1OC(C)(C)C2)c1cccc2c1OCO2`: the melting point fell in the range of 161 to 162 °C.
As for `CCCc1c(OCCCCCCC2CC(=O)c3ccc(OCC(=O)OC)c(CCC)c3O2)ccc(C(C)=O)c1O` (stereo unspecified), the melting point lay in the range of 121 to 124 °C.
In turn, `COc1ccc(C(=O)c2nnc(-c3ccccc3)o2)cc1` came in with a melting point of 152 °C.
The molecule `Nc1nc(Nc2ccc3c(c2)OCO3)sc1C(=O)c1ccccc1[N+](=O)[O-]` gave a melting point of 200 to 202 °C.
The figure for `COc1ccc(Oc2ccccc2)c(N)c1` is 112 to 114 °C; for `CCCc1cc(Cl)c2oc(C(=O)OCc3ccccc3)c(C)c2c1O` it is 119 to 120 °C.
`CCn1nc2c(N)nc3ccccc3c2c1C` yielded a melting point of 217 to 218 °C.
In turn, `CCOc1csc2ccc(C(=O)c3cnoc3C3CC3)c(SC)c12` had a melting point of 166 to 168 °C.
The figure for `C=CCOC(=O)CC(C(C)=O)S(=O)(=O)c1ccccc1` (stereo unspecified) is 62 to 64 °C.
Molecule `CC(C)Nc1cccnc1N1CCN(C(=O)c2ccc(C(=O)N3CCN(C4CCCC4)CC3)cc2)CC1` registered a melting point of 181 to 182 °C.
For `CN1CCC(C(=O)CCc2ccccc2O)CC1` the value was 99 to 101 °C.
Molecule `Cc1oc(-c2ccccc2)nc1Cc1cc2cc(CC3OC(=O)NC3=O)ccc2o1` (stereo unspecified) returned a melting point of 190 to 191 °C.
As for `CN(C)CCCN(c1ccccc1)c1ncccc1NC(=O)c1ccccc1Cl`, the melting point lay within 90 to 92 °C.
`Cc1ccc(-n2ncc(-c3ccc(S(C)(=O)=O)cc3)cc2=O)cc1` returned a melting point of 190 to 192 °C.
The figure for `CCCC1=C(c2ccc(F)cc2)C(=NO)CC1` is 165 to 166 °C; for `CC(C)CCSc1cc(C(=O)O)cc(N=Nc2cc(C(=O)O)cc(SCCC(C)C)c2C(=O)c2ccccc2)c1C(=O)c1ccccc1` it is 143 to 144 °C; for `O=C1COC2(CCN(CCC3COc4ccccc4O3)CC2)CN1` (stereo unspecified) it is 139 to 140 °C.
`COC(=O)c1sc2c(c1OC(C)C)CN(C(=O)OC(C)(C)C)CC2` had a melting point of 76 to 81 °C.
The figure for `CCCc1cc(Cl)c2oc(Cc3ccc(Cl)cc3)c(C)c2c1O` is 76 to 77 °C.
`COc1ccc2[nH]cc(C3CCC(=O)CC3)c2c1` gave a melting point of 103 to 106 °C.
In turn, `O=C1Cc2cc(OCc3ccc4ccccc4n3)ccc2N1c1ccccc1` showed a melting point of 148 to 149 °C.
With `CC(=O)c1ccc(-c2ccc(F)cc2F)c(Cl)c1`, the melting point is 63 to 64 °C.
In turn, `COc1cc(OC)c(-c2cccs2)cc1/C=C/C(=O)c1ccc(C(=O)O)cc1` registered a melting point of 213 to 216 °C.
With `CC(C)C[C@H](NC(=O)NCc1ccccc1)C(=O)N[C@@H](C(C)C)[C@@H](O)c1c(-c2ccccc2)c1=O`, the melting point amounted to 160 °C.
For `CS(=O)(=O)NC1CCC(=O)N2CCCC(C(=O)NC(CC(=O)O)C(=O)COc3cccnc3)N2C1=O` (stereo unspecified), the melting point was 120 to 125 °C.
Regarding `O=Cc1ccc(CBr)c(Cl)c1`, the melting point lay within 64 to 66 °C.
`COc1ccc2c(c1)CCC1=C2CCC2(CC(C)C)C(=O)CCC12` (stereo unspecified): the melting point was 117 to 119 °C.
The molecule `COc1ccc2nc(CBr)sc2c1` displayed a melting point of 78 to 81 °C.
For `O=C1CCn2c(nc3ccccc32)N1` the value was more than 260 °C; for `CC(C)(C)c1ccc(C[C@@H](NC(=O)c2cccc3c2C=CCCC3)[C@@H](O)c2ccc(F)cc2)cc1` (racemic), 140 to 142 °C.
The molecule `CS(=O)(=O)c1ccc(C[C@@H](N)[C@H](O)C(=O)C2(C(=O)O)CC2N)cc1` (stereo partly specified) displayed a melting point of 256 to 258 °C.
The molecule `CCCCCC(CC(=O)O)c1cc(C(=O)CC)c(OC)cc1OC` (stereo unspecified) returned a melting point of 92.5 to 94 °C.
Turning to `O=[N+]([O-])c1cc(Cl)cc2cccnc12`, the melting point fell in the range of 149 to 155 °C.
Regarding `CCCCNC(=O)OC1c2cccnc2C(=O)N1c1ccc2ccc(Cl)nc2n1` (stereo unspecified), the melting point was 215 °C.
Consider `OCCc1c[nH]c2cc(Cl)c(Cl)cc12`, for which the melting point lay within 65 to 67 °C.
With `COc1cc(Cc2cnc(N)nc2N)c2c(c1OC)OC(C)CC2O` (stereo unspecified), the melting point lay in the range of 201 to 203 °C.
The figure for `COc1ccc(C=Cc2ccc(OC)c(OC)c2)cc1` is 131 to 134 °C; for `Cc1cn(-c2c(F)cc3c(=O)c(C(=O)O)cn(C4CC4)c3c2F)cn1` it is 215 to 223 °C.
The figure for `NC(=O)N1CCN(c2ccc(O)c(O)c2)C1=O` is more than 250 °C.
Consider `O=c1sc(CO)c(C(F)(F)F)n1-c1ccccc1`, for which the melting point came out at 135 °C.
The molecule `COc1cccc(CNC(=O)c2cc3c(s2)N(C)CNC3)c1` registered a melting point of 279 to 281 °C.
The figure for `O=C(NC1N=C(c2ccccc2F)c2ccccc2NC1=O)c1ccc[nH]1` (racemic) is 271 to 274 °C; for `C=CC(=O)NCNC(=O)CCS(=O)(=O)Cl` it is 192 °C; for `CN(C(=O)OC(C)(C)C)c1cc(Oc2ccc(-c3ccccc3)cc2)ccc1N` it is 122 to 123 °C.
In turn, `Cc1ccc(C(=O)/C=C/C(=O)O)o1` had a melting point of 159 to 162 °C.
Take `CC(CC1CCCCC1)N(C)C(=O)COCC(=O)O` (stereo unspecified): the melting point fell in the range of 90 to 91 °C.
As to `CCn1nc(C(F)(F)F)c(CS(=O)(=O)C2=NOC(C)(CCl)C2)c1Cl` (stereo unspecified), the melting point was 123 to 124 °C.
For `CCN(C)c1cccc(NC(=O)COC(C)=O)c1C#N`, the melting point lay in the range of 57 to 58 °C.
The molecule `O=C(O)COc1cccc2c1CCc1sc(OCCC(c3ccccc3)c3ccccc3)nc1-2` displayed a melting point of 165 to 166 °C.
Molecule `C#C[C@@]1(O)[C@@H](COC(=O)c2ccc(Cl)cc2)OC(O)[C@@H]1O` (stereo partly specified) gave a melting point of 116 to 118 °C.
With `c1ccc([C@H]2OC[C@@H](OCc3ccccn3)CO2)cc1`, the melting point was in the range of 95 to 98 °C.
For `C=CC1CCC2C3CC=C4CC(O)CCC4(C)C3CCC12C` (stereo unspecified), the melting point is 132 to 135 °C.
Molecule `Oc1ccc(Cl)cc1C(O)(Cc1ccccc1)c1ccccc1` (stereo unspecified) gave a melting point of 128 °C.
The molecule `O=C(c1ccc2nonc2c1)N1CCCC1` displayed a melting point of 97.8 to 99.3 °C.
`CN1CCC(CC(=O)N2c3ccccc3C(=O)Nc3cccc(Cl)c32)CC1` registered a melting point of 112 °C.
`Cc1ccc(S(=O)(=O)N2CCCC(CC(C#N)(c3ccc(F)cc3)c3ccc(F)cc3)C2)cc1` (stereo unspecified) returned a melting point of 142 to 143 °C.
Molecule `CCN1C(=O)C(=CC=C2C=C(c3ccccc3)C=C3N2c2ccccc2C3(C)C)C(=O)N(CC)C1=S` came in with a melting point of more than 310 °C.
With `O=c1c(Cl)c(S(=O)C2CCCCC2)cnn1-c1ccccc1` (stereo unspecified), the melting point lay within 128 to 130 °C.
The molecule `CC(C)S(=O)(=O)c1cnc2c(c1)nc(CC(C)(C)C)n2CC1CCOCC1` yielded a melting point of 201 °C.
`O=C(O)C=CC(=O)c1ccccc1O` showed a melting point of 172 to 173 °C.
The molecule `CCOC(=O)C1=C(C=O)NC(CF)=C(C(=O)OCC)C1c1cccc([N+](=O)[O-])c1` (stereo unspecified) gave a melting point of 88 to 90 °C.
For the molecule `CC(=O)OCC1CC(n2c(I)nc3cc(Cl)c(Cl)cc32)C(OC(C)=O)C1OC(C)=O` (stereo unspecified), the melting point was 152 to 153 °C.
Regarding `O=C(c1cc(-c2cccc(Cl)c2)c(=O)n2c1-c1c(Cl)cccc1C2)N1CCC[C@@H]1CO`, the melting point fell in the range of 228 to 230 °C.
`CN(c1cc2c3c(c1)CCCC3(C)CCC2)c1ncc(C(=O)O)cn1` returned a melting point of more than 300 °C.
For the molecule `COC(=O)c1cccc2c1CC(C)(C)CC2N(C)S(C)(=O)=O` (stereo unspecified), the melting point is 98 to 99 °C.
The molecule `COc1ccc(C=NNc2ccc(S(N)(=O)=O)cc2)cc1` yielded a melting point of 228 to 231 °C.
`COC(=O)c1cccc(NC(=O)C=Cc2ccc(OC)c(OC)c2)c1N` gave a melting point of 144 to 146 °C.
Consider `COc1nc(N)nc2c1ncn2COC(CO)CO`, for which the melting point was in the range of 162 to 163 °C.
The molecule `CCOC(=O)N1CCC(SC(c2ccccc2)c2ccccc2)CC1` gave a melting point of 70 to 71 °C.
The figure for `Cc1cc(O)c(C)c(C)c1N` is 153 to 154 °C; for `Cc1nc2c(Cl)cc3nc(O)c(O)nc3c2nc1C` it is more than 300 °C; for `CN(C)CCCNc1ncc2c(n1)-c1ccccc1C(c1cccc(Br)c1)C2` (stereo unspecified) it is 120 to 122 °C.
`CCN1C(=O)C(=O)C(C)=C(C#N)C1=O` showed a melting point of 159 to 160 °C.
Regarding `Cc1ccc(-c2nc(NC(=O)OCC[Si](C)(C)C)cs2)cc1`, the melting point lay within 108 to 109 °C.
Consider `COc1cc2ncnc(N3CCc4cc5[nH]ccc5cc43)c2cc1OC`, for which the melting point was 245 to 252 °C.
`Nc1ncc(-c2ccccc2)nc1Sc1ccc(F)cc1` registered a melting point of 161 to 164 °C.
In turn, `COc1cc(-c2nc3ccc(OCCCCl)cc3n2Cc2ccccc2)cc(OC)c1OC` yielded a melting point of 118 °C.
`Nc1ncncc1Oc1ccccc1` showed a melting point of 118 to 120 °C.
Molecule `Nc1c(Cl)cc(C(O)CNCCCCCCOCCSCCc2ccccn2)cc1Cl` (stereo unspecified) yielded a melting point of 59.5 to 62 °C.
In turn, `CCCCP(=O)(C(=O)c1c(OC)cccc1OC)C(=O)c1c(OC)cccc1OC` registered a melting point of 151 to 152 °C.

Source of the values: a melting point compilation (Tetko et al.; mined from patent text by program, amines drawn as free bases though some values may be those of a salt).
